The source of these data is ChEMBL document CHEMBL5104189, “Piptide Chemotypes for Perturbation of the Interaction of Urokinase with Its Receptor” (J Med Chem, 2022).

Activity calls are given as the source filed them. No cut-off for these calls is given here.

Assay [1] concerns the target T1, Urokinase-type plasminogen activator/surface receptor (Homo sapiens, UniProt P00749+Q03405). Put plainly: Inhibition of uPAR/uPA (unknown origin) interaction by ELISA. The format is protein assay.
In assay [2] the target is T1, Urokinase-type plasminogen activator/surface receptor. Put plainly: Inhibition of uPAR/uPA (unknown origin) interaction assessed as dissociation constant by fluorescence polarization (FP) assay. Format: protein assay. (In general: In fluorescence polarisation assays a small probe gives low polarisation when free and higher when bound to something large.)
Assay [3] concerns MDA-MB-231. Put plainly: Antimigratory activity in human MDA-MB-231 cells assessed as relative migration at 5 to 50 uM by scratch wound healing assay. Format: functional, cell-based. Particulars: dose 5-50 µM.
In assay [4] the test system is MDA-MB-231. Briefly: Anti-invasive activity in human MDA-MB-231 cells assessed as relative invasion at 5 to 50 uM by scratch wound healing assay. The following applies: dose 5-50 µM. Format: functional, cell-based.
Assay [5] deals with MDA-MB-231. Briefly: Antimigratory activity in human MDA-MB-231 cells assessed as scratch closure speed at 5 to 50 uM by scratch wound healing assay. The format is functional, cell-based. Particulars: dose 5-50 µM.

Broadly, the IC50 is the concentration that inhibits the measured activity by half. The Ki is a measure of affinity in units of concentration, obtained from inhibition or displacement. For `Cc1cccc2c(C(=O)N3CCN(c4c(C)n(C)c(=O)n(C)c4=O)CC3)cc(-c3ccccc3)nc12`, in assay [1], the IC50 was 15.5 µM. Also, the inhibition constant Ki in assay [2] came out at 2.5 µM.
The matching figures for `CC[C@H](C)[C@@H](C(N)=O)n1cc([C@@H](CO)NC(=O)N2CCN([C@@H](CO)C(=O)N3CCN([C@@H](CCCCN)C(=O)O)CC3)CC2)nn1`: 2.85 µM and 2.56 µM.
The matching figures for `CC[C@H](C)[C@@H](C(N)=O)n1cc([C@@H](CO)N2C(=O)N[C@@H](Cc3ccccc3)C2=O)nn1`: 8.35 µM and 7.5 µM.
Regarding `NCCCC[C@H](C(=O)N1CCN([C@@H](CO)C(N)=O)CC1)n1cc([C@@H](Cc2ccccc2)N2C(=O)N[C@@H](CO)C2=O)nn1`, the result with MDA-MB-231 [3] was Active. Also, the midpoint of inhibition in assay [1], the IC50, lay at 2.45 µM. Besides, the inhibition constant Ki in assay [2] turned out to be 2.2 µM.
Take `NCCCC[C@H](C(=O)N1CCN([C@H](Cc2ccccc2)C(N)=O)CC1)N1CCN(C(=O)[C@H](N)CO)CC1`: the outcome with MDA-MB-231 [4] and in the assay with MDA-MB-231 [5] was Active. Also, the concentration for half-maximal inhibition (IC50) in assay [1] turned out to be 3.06 µM. Further, the inhibition constant (Ki) in assay [2] amounted to 2.75 µM.
The compound `NCCCC[C@H](C(=O)N1CCN([C@@H](Cc2ccccc2)C(N)=O)CC1)N1CCN(C(=O)[C@H](N)CO)CC1` returned an IC50 in assay [1] of 3.06 µM. In addition, in assay [2], the inhibition constant (Ki) stood at 6.2 µM.
`Cc1ccc(N2C(=O)C(O)=C(C(=O)c3ccc(Cl)cc3)C2c2cccc(F)c2)cc1Br` (centres undefined) gave an IC50 in assay [1] of 18.4 µM. In assay [2], the Ki was 0.7 µM.
The matching figures for `NC(=O)C[C@H](C(=O)N1CCN([C@H](CO)C(N)=O)CC1)N1CCN(C(=O)[C@H](N)Cc2ccccc2)CC1`: 14.7 µM and 13.2 µM.
